Assay results from patent US20260035387A1 (BIOGEN MA INC., priority 2022, published 2026).

These compounds were tested on mutant Huntington (HTT) protein (assay: HTT Mutant HTRF iPSC assay (mHTT protein lowering)). Conditions: human iPSC derived from a HTT patient with a poly-Q49 mutation.
Assay type: cell-based

Compound | IC50
Cc1cn2cc(NC(=O)c3cc4ncc(C5CCNCC5)nc4s3)cc(F)c2n1 [Compound 148, N-(8-fluoro-2-methyl-imidazo[1,2-a]pyridin-6-yl)-3-(4-piperidyl)thieno[2,3-b]pyrazine-6-carboxamide] | < 100 nM
Cc1cn2cc(NC(=O)c3cc4cnc(N5CC[C@@H](N(C)C)C5)nc4s3)cc(F)c2n1 [Compound 149, (R)-2-(3-(dimethylamino)pyrrolidin-1-yl)-N-(8-fluoro-2-methylimidazo[1,2-a]pyridin-6-yl)thieno[2,3-d]pyrimidine-6-carboxamide] | 100 to 1000 nM
Cc1cn2cc(NC(=O)c3cc4cnc(N5CC[C@@H](N(C)C)C5)nc4s3)nc(C)c2n1 [Compound 150, (R)-2-(3-(dimethylamino)pyrrolidin-1-yl)-N-(2,8-dimethylimidazo[1,2-a]pyrazin-6-yl)thieno[2,3-d]pyrimidine-6-carboxamide] | 100 to 1000 nM
Cc1cn2cc(NC(=O)c3cc4cnc(N5CC[C@H](N(C)C)C5)nc4s3)nc(C)c2n1 [Compound 151, (S)-2-(3-(dimethylamino)pyrrolidin-1-yl)-N-(2,8-dimethylimidazo[1,2-a]pyrazin-6-yl)thieno[2,3-d]pyrimidine-6-carboxamide] | 1000 to 9000 nM
Cc1cn2cc(NC(=O)c3cc4cnc(N5CC[C@H](N(C)C)C5)nc4s3)cc(F)c2n1 [Compound 152, 2-[(3S)-3-(dimethylamino)pyrrolidin-1-yl]-N-(8-fluoro-2-methyl-imidazo[1,2-a]pyridin-6-yl)thieno[2,3-d]pyrimidine-6-carboxamide] | 100 to 1000 nM
Cc1cn2cc(C(=O)Nc3cc4ccc(N5CC[C@H](N(C)C)C5)nc4s3)cc(F)c2n1 [Compound 153, N-[6-[(3S)-3-(dimethylamino)pyrrolidin-1-yl]thieno[2,3-b]pyridin-2-yl]-8-fluoro-2-methyl-imidazo[1,2-a]pyridine-6-carboxamide] | < 100 nM
Cc1cn2cc(NC(=O)c3cc4ccc(OC5CCC(N(C)C)C5)nc4s3)cc(F)c2n1 (stereo not drawn) [Compound 155, 6-((3-(dimethylamino)cyclopentyl)oxy)-N-(8-fluoro-2-methylimidazo[1,2-a]pyridin-6-yl)thieno[2,3-b]pyridine-2-carboxamide] | < 100 nM
Cc1cn2cc(NC(=O)c3cc4ccc(OC5C[C@@H](C)N[C@H](C)C5)nc4s3)cc(F)c2n1 (stereo partly drawn) [Compound 157] | 100 to 1000 nM
Cc1cn2cc(NC(=O)c3cc4ccc(OC5CCC6(CCN(C)CC6)C5)nc4s3)cc(F)c2n1 (stereo not drawn) [Compound 160, N-(8-fluoro-2-methylimidazo[1,2-a]pyridin-6-yl)-6-((8-methyl-8-azaspiro[4.5]decan-2-yl)oxy)thieno[2,3-b]pyridine-2-carboxamide] | 100 to 1000 nM
Cc1cn2cc(NC(=O)c3cc4ccc(OC5CC6(CCN(C)CC6)C5)nc4s3)cc(F)c2n1 [Compound 162, N-(8-fluoro-2-methylimidazo[1,2-a]pyridin-6-yl)-6-((7-methyl-7-azaspiro[3.5]nonan-2-yl)oxy)thieno[2,3-b]pyridine-2-carboxamide] | 100 to 1000 nM
Cc1cn2cc(NC(=O)c3cc4nc(C5CCN(C)CC5)ccc4o3)cc(F)c2n1 [Compound 163, N-(8-fluoro-2-methyl-imidazo[1,2-a]pyridin-6-yl)-5-(1-methyl-4-piperidyl)furo[3,2-b]pyridine-2-carboxamide] | 100 to 1000 nM
COc1cc2nn(C)cc2cc1NC(=O)c1cc2nc(N3CCC(N4CCC4)C3)ccc2o1 (stereo not drawn) [Compound 164, 5-(3-(azetidin-1-yl)pyrrolidin-1-yl)-N-(6-methoxy-2-methyl-2H-indazol-5-yl)furo[3,2-b]pyridine-2-carboxamide] | 100 to 1000 nM
Cc1cn2cc(NC(=O)c3cc4nc(N5CCN(C)CC5)ccc4o3)cc(F)c2n1 [Compound 165, N-(8-fluoro-2-methylimidazo[1,2-a]pyridin-6-yl)-5-(4-methylpiperazin-1-yl)furo[3,2-b]pyridine-2-carboxamide] | < 100 nM
Cc1cn2cc(NC(=O)c3cc4nc(N5CC[C@@H](N(C)C)C5)ccc4o3)cc(F)c2n1 [Compound 166, (R)-5-(3-(dimethylamino)pyrrolidin-1-yl)-N-(8-fluoro-2-methylimidazo[1,2-a]pyridin-6-yl)furo[3,2-b]pyridine-2-carboxamide] | < 100 nM
COc1cc2nn(C)cc2cc1NC(=O)c1cc2nc(N3CCC4(CCCN4C)C3)ccc2o1 (stereo not drawn) [Compound 167, N-(6-methoxy-2-methyl-2H-indazol-5-yl)-5-(1-methyl-1,7-diazaspiro[4.4]nonan-7-yl)furo[3,2-b]pyridine-2-carboxamide] | < 100 nM
Cc1cn2cc(NC(=O)c3cc4nc(N5CCNCC5)ccc4o3)cc(F)c2n1 [Compound 169, N-(8-fluoro-2-methylimidazo[1,2-a]pyridin-6-yl)-5-(piperazin-1-yl)furo[3,2-b]pyridine-2-carboxamide] | < 100 nM
COc1cc2nn(C)cc2cc1NC(=O)c1cc2nc(N3CCC(N(C)C)C3)ccc2o1 (stereo not drawn) [Compound 170, 5-(3-(dimethylamino)pyrrolidin-1-yl)-N-(6-methoxy-2-methyl-2H-indazol-5-yl)furo[3,2-b]pyridine-2-carboxamide] | < 100 nM
COc1cn2nc(C)cc2cc1NC(=O)c1cc2nc(N3C[C@@H]4CN(C)C[C@@H]43)ccc2o1 [Compound 171, N-(6-methoxy-2-methylpyrazolo[1,5-a]pyridin-5-yl)-5-((1S,5R)-3-methyl-3,6-diazabicyclo[3.2.0]heptan-6-yl)furo[3,2-b]pyridine-2-carboxamide] | 100 to 1000 nM
COc1cc2nn(C)cc2cc1NC(=O)c1cc2nc(N3CC[C@@H](N4CCC4)C3)ccc2o1 [Compound 172, (R)-5-(3-(azetidin-1-yl)pyrrolidin-1-yl)-N-(6-methoxy-2-methyl-2H-indazol-5-yl)furo[3,2-b]pyridine-2-carboxamide] | 100 to 1000 nM
COc1cc2nn(C)cc2cc1NC(=O)c1cc2nc(N3CC[C@H](N4CCC4)C3)ccc2o1 [Compound 173, (S)-5-(3-(azetidin-1-yl)pyrrolidin-1-yl)-N-(6-methoxy-2-methyl-2H-indazol-5-yl)furo[3,2-b]pyridine-2-carboxamide] | 100 to 1000 nM
Cc1cn2cc(NC(=O)c3cc4ccc(C5CCNC(C)(C)C5)nc4s3)cc(F)c2n1 (stereo not drawn) [Compound 176, 6-(2,2-dimethylpiperidin-4-yl)-N-(8-fluoro-2-methylimidazo[1,2-a]pyridin-6-yl)thieno[2,3-b]pyridine-2-carboxamide] | < 100 nM
COc1cc2nn(C)cc2cc1NC(=O)c1cc2ccc(C3CCN(C)CC3)nc2s1 [Compound 178, N-(6-methoxy-2-methyl-2H-indazol-5-yl)-6-(1-methylpiperidin-4-yl)thieno[2,3-b]pyridine-2-carboxamide] | < 100 nM
Cc1cn2cc(NC(=O)c3cc4ccc(C5CNC(C)C5)nc4s3)cc(F)c2n1 (stereo not drawn) [Compound 179, N-(8-fluoro-2-methylimidazo[1,2-a]pyridin-6-yl)-6-(5-methylpyrrolidin-3-yl)thieno[2,3-b]pyridine-2-carboxamide] | < 100 nM
Cc1cn2cc(NC(=O)c3cc4ccc(C5CCC6(CNC6)C5)nc4s3)cc(F)c2n1 (stereo not drawn) [Compound 182, N-(8-fluoro-2-methylimidazo[1,2-a]pyridin-6-yl)-6-(2-azaspiro[3.4]octan-6-yl)thieno[2,3-b]pyridine-2-carboxamide] | 100 to 1000 nM
